Results on 56 compounds are retold here after US9029359B2, “Heteroaryl Btk inhibitors” (Biogen Idec MA, Inc., priority 2009, dated 2015).

Broadly, the IC50 is the concentration that gives 50% inhibition. Low values mean greater potency in that assay, high ones weaker potency in that assay.

T1 sequence (Q06187 whole entry): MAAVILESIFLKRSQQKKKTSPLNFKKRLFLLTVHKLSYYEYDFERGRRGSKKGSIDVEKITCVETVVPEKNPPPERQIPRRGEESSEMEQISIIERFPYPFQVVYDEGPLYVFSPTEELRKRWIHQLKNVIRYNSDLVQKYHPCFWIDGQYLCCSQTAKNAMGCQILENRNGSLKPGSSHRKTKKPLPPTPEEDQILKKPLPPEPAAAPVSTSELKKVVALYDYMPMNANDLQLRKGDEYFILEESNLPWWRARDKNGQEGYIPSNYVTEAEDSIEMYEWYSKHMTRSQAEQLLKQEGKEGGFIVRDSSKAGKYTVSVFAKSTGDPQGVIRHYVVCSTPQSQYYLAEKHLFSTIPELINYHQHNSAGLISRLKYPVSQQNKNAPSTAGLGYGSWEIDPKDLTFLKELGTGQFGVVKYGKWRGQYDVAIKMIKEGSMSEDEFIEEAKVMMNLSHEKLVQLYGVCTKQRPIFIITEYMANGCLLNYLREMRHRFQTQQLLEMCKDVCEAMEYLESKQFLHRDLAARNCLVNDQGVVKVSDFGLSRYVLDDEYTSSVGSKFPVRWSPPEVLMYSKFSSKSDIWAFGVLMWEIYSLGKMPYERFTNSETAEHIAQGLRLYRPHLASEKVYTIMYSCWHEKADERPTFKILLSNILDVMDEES

The test has as its target T1, BTK (Homo sapiens, UniProt Q06187).
T1 construct: purchased Upstate 14-552
As to the kind of experiment: In vitro BTK kinase assay: BTK-POLYGAT-LS ASSAY. In kind it is biochemical. The following applies: ATP 10 uM. The method, boiled down: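 BTK phosphorylation of polyGAT (100 nM final) with ATP at 10 μM final, 10 mM Tris-HCl pH 7.5 kinase buffer, quenched by EDTA after 30 min. Potency given as IC50.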
The compound `Nc1ncnc(N2CCC[C@@H](NC(=O)CNc3cc(Cl)cc(Cl)c3)C2)c1Cl` [Example 140, (R)—N-(1-(6-amino-5-chloropyrimidin-4-yl)piperidin-3-yl)-2-(3,5-dichlorophenylamino)acetamide] returned an IC50 of 0.1 to 0.999 µM. In turn, `CC(=O)Nc1cc(N2CCC[C@@H](NC(=O)CNc3cc(Cl)cc(Cl)c3)C2)ncn1` [Example 141, (R)—N-(1-(6-acetamidopyrimidin-4-yl)piperidin-3-yl)-2-(3,5-dichlorophenylamino)acetamide] displayed an IC50 of 1 to 10 µM. The same measure for `CC(C)Nc1cc(N2CCC[C@@H](NC(=O)CNc3cc(Cl)cc(Cl)c3)C2)ncn1` [Example 142, (R)-2-(3,5-dichlorophenylamino)-N-(1-(6-(isopropylamino)pyrimidin-4-yl)piperidin-3-yl)acetamide]: 1 to 10 µM; for `CCNc1cc(N2CCC[C@@H](NC(=O)CNc3cc(Cl)cc(Cl)c3)C2)ncn1` [Example 143, (R)-2-(3,5-dichlorophenylamino)-N-(1-(6-(ethylamino)pyrimidin-4-yl)piperidin-3-yl)acetamide]: 1 to 10 µM; for `CNc1cc(N2CCC[C@@H](NC(=O)CNc3cc(Cl)cc(Cl)c3)C2)ncn1` [Example 144, (R)-2-(3,5-dichlorophenylamino)-N-(1-(6-(methylamino)pyrimidin-4-yl)piperidin-3-yl)acetamide]: 0.1 to 0.999 µM. `C[C@H]1CC[C@@H](NC(=O)[C@H](Nc2cc(F)cc(Cl)c2)C2CC2)CN1c1ncnc2[nH]ncc12` [Example 148, (R)-2-(3-chloro-5-fluorophenylamino)-2-cyclopropyl-N-((3R,6S)-6-methyl-1-(1H-pyrazolo[3,4-d]pyrimidin-4-yl)piperidin-3-yl)acetamide] had an IC50 of 0.1 to 0.999 µM. In the case of `O=C(NC1CN(c2ncnc3[nH]ncc23)CCC1c1ccccc1)[C@H](Nc1cc(F)cc(Cl)c1)C1CC1` (stereo partly drawn) [Example 149, (R)-2-(3-chloro-5-fluorophenylamino)-2-cyclopropyl-N-(4-phenyl-1-(1H-pyrazolo[3,4-d]pyrimidin-4-yl)piperidin-3-yl)acetamide], the IC50 was under 0.1 µM. The compound `C[C@H]1CCN(c2ncnc3[nH]ncc23)C[C@@H]1NC(=O)[C@H](Nc1cc(Cl)cc(Cl)c1)C1CC1` [Example 152, (R)-2-cyclopropyl-2-(3,5-dichlorophenylamino)-N-((3R,4S)-4-methyl-1-(1H-pyrazolo[3,4-d]pyrimidin-4-yl)piperidin-3-yl)acetamide] showed an IC50 of under 0.1 µM. With `CCC[C@@H](Nc1cc(Cl)cc(Cl)c1)C(=O)N[C@H]1CN(c2ncnc3[nH]ncc23)CC[C@@H]1C` [Example 153], the IC50 was under 0.1 µM.

In turn, `CC[C@@H](Nc1cc(F)cc(Cl)c1)C(=O)N[C@H]1CN(c2ncnc3[nH]ncc23)CC[C@@H]1C` [Example 154] came in with an IC50 of under 0.1 µM. The same measure for `O=C(CNc1ccccc1S(=O)(=O)c1ccccc1)N[C@@H]1CCCN(c2ncnc3[nH]ncc23)C1` [Example 163]: under 0.1 µM; for `C[C@@H](O)[C@@H](Nc1cc(Cl)cc(Cl)c1)C(=O)N[C@@H]1CCCN(c2ncnc3[nH]ncc23)C1` [Example 164]: under 0.1 µM. The compound `C[C@H](O)[C@@H](Nc1cc(Cl)cc(Cl)c1)C(=O)N[C@@H]1CCCN(c2ncnc3[nH]ncc23)C1` [Example 165] returned an IC50 of under 0.1 µM.

Turning to `CCC[C@@H](Nc1cc(Cl)cc(Cl)c1)C(=O)N[C@@H]1CCCN(c2ncnc3[nH]ncc23)C1` [Example 166], the IC50 is under 0.1 µM.

As to `O=C(CNc1ccccc1Sc1ccccc1)N[C@@H]1CCCN(c2ncnc3[nH]ncc23)C1` [Example 167], the IC50 is under 0.1 µM. The compound `CCC[C@@H](Nc1cc(F)cc(Cl)c1)C(=O)N[C@@H]1CCCN(c2ncnc3[nH]ncc23)C1` [Example 168] yielded an IC50 of under 0.1 µM. The same measure for `CCC[C@@H](Nc1cccc(Cl)c1)C(=O)N[C@@H]1CCCN(c2ncnc3[nH]ncc23)C1` [Example 169]: under 0.1 µM; for `O=C(CNc1ccccc1S(=O)(=O)N1CCCCC1)NC1CCCCN(c2ncnc3[nH]ncc23)C1` (centres unmarked) [Example 170]: under 0.1 µM; for `C[C@@H](O)[C@@H](Nc1cc(F)cc(Cl)c1)C(=O)N[C@@H]1CCCN(c2ncnc3[nH]ncc23)C1` [Example 171]: under 0.1 µM. The same measure for `CCCN(CC)S(=O)(=O)c1ccccc1NCC(=O)N[C@@H]1CCCN(c2ncnc3[nH]ncc23)C1` [Example 172]: under 0.1 µM. Regarding `O=C(CNc1ccccc1S(=O)(=O)c1ccccc1)N[C@@H]1CCCN(c2ncnc3[nH]ccc23)C1` [Example 173], the half-maximal inhibitory concentration (IC50) was under 0.1 µM. The same measure for `C[C@H](O)[C@@H](Nc1cc(F)cc(Cl)c1)C(=O)N[C@@H]1CCCN(c2ncnc3[nH]ncc23)C1` [Example 174]: under 0.1 µM. As for `O=C(CNc1ccccc1S(=O)(=O)N1CCC(F)(F)CC1)N[C@@H]1CCCN(c2ncnc3[nH]ncc23)C1` [Example 176], the IC50 is under 0.1 µM. The same measure for `CCC[C@@H](Nc1cc(Cl)cc(Cl)c1)C(=O)N[C@@H]1CCCN(c2ncnc3[nH]ccc23)C1` [Example 178]: under 0.1 µM. The same measure for `CC(C)CN(CC(C)C)S(=O)(=O)c1ccccc1NCC(=O)N[C@@H]1CCCN(c2ncnc3[nH]ccc23)C1` [Example 179]: under 0.1 µM; for `CC[C@@H](C)[C@@H](Nc1cc(F)cc(Cl)c1)C(=O)N[C@@H]1CCCN(c2ncnc3[nH]ncc23)C1` [Example 180]: under 0.1 µM; for `C[C@H](O)[C@@H](Nc1cc(Cl)cc(Cl)c1)C(=O)N[C@@H]1CCCN(c2ncnc3[nH]ccc23)C1` [Example 181]: under 0.1 µM. The compound `O=C(CNc1ccccc1S(=O)(=O)N1CCCCC1)N[C@@H]1CCCN(c2ncnc3[nH]ccc23)C1` [Example 182] registered an IC50 of under 0.1 µM. The same measure for `O=C(CNc1ccccc1S(=O)(=O)N1CCCCC1)N[C@@H]1CCCN(c2ncnc3[nH]ncc23)C1` [Example 183]: under 0.1 µM; for `O=C(NC1CCCCN(c2ncnc3[nH]ncc23)C1)[C@H](Nc1cc(F)cc(Cl)c1)C1CC1` (some centres unmarked) [Example 184]: under 0.1 µM; for `C[C@@H](Nc1cc(F)cc(Cl)c1)C(=O)N[C@@H]1CCCN(c2ncnc3[nH]ncc23)C1` [Example 185]: under 0.1 µM. The compound `CC(C)CN(CC(C)C)S(=O)(=O)c1ccccc1NCC(=O)N[C@@H]1CCCN(c2ncnc3[nH]ncc23)C1` [Example 186] returned a 50% inhibitory concentration (IC50) of under 0.1 µM. The compound `O=C(CNc1ccccc1S(=O)(=O)c1cccc(C(F)(F)F)c1)N[C@@H]1CCCN(c2ncnc3[nH]ncc23)C1` [Example 187] registered an IC50 of under 0.1 µM. `CC(C)CCSc1ccccc1NCC(=O)N[C@@H]1CCCN(c2ncnc3[nH]ccc23)C1` [Example 188]: the IC50 was under 0.1 µM.

In the case of `CC1CCCN1S(=O)(=O)c1ccccc1NCC(=O)N[C@@H]1CCCN(c2ncnc3[nH]ncc23)C1` (some centres unmarked) [Example 189], the half-maximal inhibitory concentration (IC50) is under 0.1 µM.

In the case of `CC[C@H](C)[C@@H](Nc1cc(F)cc(Cl)c1)C(=O)N[C@@H]1CCCN(c2ncnc3[nH]ncc23)C1` [Example 192], the IC50 is under 0.1 µM. In the case of `CCCC[C@@H](Nc1cc(F)cc(Cl)c1)C(=O)N[C@@H]1CCCN(c2ncnc3[nH]ncc23)C1` [Example 193], the IC50 is under 0.1 µM. `O=C(CNc1ccccc1Sc1ccccc1)N[C@@H]1CCCN(c2ncnc3[nH]ccc23)C1` [Example 194] displayed a 50% inhibitory concentration (IC50) of under 0.1 µM. `CCN(CC)S(=O)(=O)c1ccccc1NCC(=O)N[C@@H]1CCCN(c2ncnc3[nH]ncc23)C1` [Example 195] registered an IC50 of under 0.1 µM.

Consider `CCN(C(C)C)S(=O)(=O)c1ccccc1NCC(=O)N[C@@H]1CCCN(c2ncnc3[nH]ncc23)C1` [Example 196], for which the IC50 was under 0.1 µM. In the case of `CCC[C@@H](Nc1cc(F)cc(Cl)c1)C(=O)N[C@@H]1CCCN(c2ncnc3[nH]ccc23)C1` [Example 197], the IC50 was under 0.1 µM. The compound `CC1(C)CCCN(S(=O)(=O)c2ccccc2NCC(=O)N[C@@H]2CCCN(c3ncnc4[nH]ncc34)C2)C1` [Example 198] yielded an IC50 of under 0.1 µM.

In turn, `CCCCOc1ccccc1NCC(=O)N[C@@H]1CCCN(c2ncnc3[nH]ccc23)C1` [Example 199] displayed a 50% inhibitory concentration (IC50) of under 0.1 µM.

Consider `CC(C)(C)[C@@H](Nc1cc(F)cc(Cl)c1)C(=O)N[C@@H]1CCCN(c2ncnc3[nH]ncc23)C1` [Example 200], for which the concentration for half-maximal inhibition (IC50) was under 0.1 µM. For the compound `CC(C)(C)[C@@H](Nc1cc(Cl)cc(Cl)c1)C(=O)N[C@@H]1CCCN(c2ncnc3[nH]ccc23)C1` [Example 202], the 50% inhibitory concentration (IC50) was under 0.1 µM. `O=C(CNc1ccccc1S(=O)(=O)N1CCCC1)N[C@@H]1CCCN(c2ncnc3[nH]ccc23)C1` [Example 203] gave an IC50 of under 0.1 µM. In the case of `O=C(CNc1ccccc1Oc1ccccc1)N[C@@H]1CCCN(c2ncnc3[nH]ncc23)C1` [Example 204], the half-inhibitory concentration (IC50) is under 0.1 µM. Consider `O=C(CNc1ccccc1S(=O)(=O)N1CCCC1)N[C@@H]1CCCN(c2ncnc3[nH]ncc23)C1` [Example 205], for which the IC50 was under 0.1 µM.

Regarding `C[C@H](O)[C@@H](Nc1cc(F)cc(Cl)c1)C(=O)N[C@@H]1CCCN(c2ncnc3[nH]ccc23)C1` [Example 206], the IC50 is under 0.1 µM. Turning to `CCN(C)S(=O)(=O)c1ccccc1NCC(=O)N[C@@H]1CCCN(c2ncnc3[nH]ccc23)C1` [Example 207], the IC50 is under 0.1 µM. The same measure for `CCN(CC)S(=O)(=O)c1ccccc1NCC(=O)N[C@@H]1CCCN(c2ncnc3[nH]ccc23)C1` [Example 208]: under 0.1 µM; for `CC(C)[C@@H](Nc1cc(F)cc(Cl)c1)C(=O)N[C@@H]1CCCN(c2ncnc3[nH]ccc23)C1` [Example 209]: under 0.1 µM; for `CC(C)c1ccccc1NCC(=O)N[C@@H]1CCCN(c2ncnc3[nH]ccc23)C1` [Example 210]: under 0.1 µM. With `CN(C1CCCC1)S(=O)(=O)c1ccccc1NCC(=O)N[C@@H]1CCCN(c2ncnc3[nH]ncc23)C1` [Example 211], the IC50 was under 0.1 µM. With `CC1CCN(S(=O)(=O)c2ccccc2NCC(=O)N[C@@H]2CCCN(c3ncnc4[nH]ncc34)C2)CC1` [Example 212], the IC50 was under 0.1 µM. Regarding `CCN(C)S(=O)(=O)c1ccccc1NCC(=O)N[C@@H]1CCCN(c2ncnc3[nH]ncc23)C1` [Example 213], the IC50 was under 0.1 µM.
